Experimental data reported in patent publication US8859490B2, “Peptide nucleic acid monomers and oligomers” (Nanyang Technological University, priority 2008, dated 2014).
“Also recorded” adds a separate entry of the source.

tested on: Hela cells; experiment: Cell uptake of FAM-labelled oligomers, fluorescence confocal microscopy; type: cell-based; conditions: fluorescein-labelled, 0.5 μM, 24 h, 37° C.
Experimental: Culture and transfection of Hela cells with fluorescein-labeled aegPNA, AP-PNA, GP-PNA oligomers and Tat peptide were carried out according to previously published protocols (Janowski, B. A., et al., Nature Protocols (2006) 1, 436; Shiraishi, T., &. Nielsen, P. E., Nature Protocols (2006) 1, 633). Hela cells were grown in 75-cm^2 culture flasks at 37° C. in an atmosphere of 5% CO2 in Hyclone DMEM/High Glucose medium without antibiotics and were plated at 100,000 cells per well on 6-well Lab-Tek chambered coverglass slides in DMEM medium and cultured two days before transfection. Oligomer solutions were prepared by diluting a 200 μM stock solution at 1×PBS buffer to 0.5 μM with warmed (37° C.) medium. The cell medium was discarded and cells were washed with 1×PBS buffer followed by incubation with the above prepared oligomers at a concentration of 0.5 μM for 24 h at 37° C. in an atmosphere of 5% CO2. The medium was removed and cells were washed with 1×PBS buffer (2 mL×3) and fixed with […]. The cells were imaged with Olympus IX51 fitted with Cool SNAP^HQ camera and analyzed using Metamorph software (Molecular Devices).
For the present example the GP-PNA and AP-PNA with the 6-C spacer was chose to examine the cell-uptake activity, since these display the strongest binding affinity when complexed to complementary DNA. Dodecamer aegPNA (Fl-TAGTAGATCACT-Gly-NH2) (SEQ ID NO:1), AP-PNA (Fl-TA^6aGT^6aAG^6aAT^6aCA^6aCT^6a-Gly-NH2) (SEQ ID NO:2), GP-PNA (Fl-TA^6gGT^6gAG^6gAT^6gCA^6gCT^6g-Gly-NH2) (SEQ ID NO:3) oligomers and Tat peptide (Fl-Tyr-Gly-Arg-Lys-Lys-Arg-Arg-Gln-Arg-Arg-Arg-NH2) (SEQ ID NO:4) were synthesized and labeled by fluorescein at the N-terminus. These oligomers were incubated with Hela cells for 24 h at 37° C. and were fixed by paraformaldehyde after PBS (1×) buffer washing. Their uptake properties were determined by fluorescence confocal microscopy. […] To conclude, the guanidino groups pendant from the backbone amide nitrogen confer cell-permeability to the modified PNAs.

Substance | cell uptake (fluorescence in cells)
Fl-TA^6aGT^6aAG^6aAT^6aCA^6aCT^6a-Gly-NH2 [AP-PNA] | better cell uptake property than the aegPNA; also recorded: moderate enhancement in cell uptake activity compared with aegPNA
Fl-TA^6gGT^6gAG^6gAT^6gCA^6gCT^6g-Gly-NH2 [GP-PNA] | clear and strong fluorescence images were detected in almost all cells; also recorded: readily taken up by Hela cells
Fl-TAGTAGATCACT-Gly-NH2 [aegPNA, reference compound] | poor cell uptake property
